Measurements as given in the supplement of paper PMC10627819.

Columns and labels:
[1] = tested on: S. pneumoniae D39V; test: fitness (endpoint OD595 vs no drug) (fraction); higher = more growth
Method in brief: (§1)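 Fitness compares growth at the stationary-phase transition with the robust mean of no-drug control wells, as a ratio of optical densities. The ratio is capped at 1. Wells of 384-well plates held 30 µl, or 55 µl for S. pneumoniae, inoculated at OD595 0.01. Readings at OD595 every 30 min for 14 h at 37 °C were corrected against the first reading.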

[2] = tested on: B. subtilis 168; test: as above
Method in brief: as §1

[3] = tested on: S. pneumoniae D39V; test: Bliss interaction score (quartile over a dose matrix) (fitness difference); higher = more antagonism (negative = synergy)
Method in brief: (§2)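 Fitness here means normalised growth, inferred for single drugs from the combination data. Growth was OD595 at entry into stationary phase, divided by the plate's robust no-drug mean and capped at 1. The Bliss score is observed minus expected fitness, with the expectation being the product, and its quartiles span technical, biological and donor/recipient replicates.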

[4] = tested on: S. aureus DSM 20231; test: as above
Method in brief: as §2

[5] = tested on: B. subtilis 168; test: as above
Method in brief: as §2

[6] = tested on: S. aureus Newman; test: as above
Method in brief: as §2
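Throughout, for Bliss interaction score (quartile over a dose matrix): first quartile when negative (synergy) and third quartile when positive (antagonism).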
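Throughout, for fitness (endpoint OD595 vs no drug): OD595 on entry to stationary phase over no-drug wells; at most 1.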

CN(C)C(=O)C(CCN1CCC(O)(c2ccc(Cl)cc2)CC1)(c1ccccc1)c1ccccc1 [Loperamide] + CN1C2=CC=CC=C2N=C3C1=CC=CC3=O [Pyocyanin]
Conditions	fitness
[1], first compound 17.14 µg/mL, partner 0.325 µg/mL	≥ 1
[1], first compound 17.14 µg/mL, partner 0.65 µg/mL	0.984
[1], first compound 17.14 µg/mL, partner 1.3 µg/mL	0.797
[1], first compound 34.28 µg/mL, partner 0.325 µg/mL	0.993
[1], first compound 34.28 µg/mL, partner 0.65 µg/mL	0.945
[1], first compound 34.28 µg/mL, partner 1.3 µg/mL	0.729
[2], first compound 25 µg/mL, partner 1.25 µg/mL	0.819
[2], first compound 25 µg/mL, partner 2.5 µg/mL	0.78
[2], first compound 25 µg/mL, partner 5 µg/mL	0.632
[2], first compound 50 µg/mL, partner 5 µg/mL	0.215
[2], first compound 100 µg/mL, partner 1.25 µg/mL	0.062
[2], first compound 100 µg/mL, partner 2.5 µg/mL	0.0311
[2], first compound 100 µg/mL, partner 5 µg/mL	0.0308

fitness, [1], one replicate
Conditions	first compound 20 µg/mL	first compound 40 µg/mL	first compound 68.57 µg/mL	first compound 80 µg/mL
partner 0.325 µg/mL	≥ 1	≥ 1	≥ 1	≥ 1
partner 0.65 µg/mL	≥ 1	≥ 1	0.964	0.995
partner 1.3 µg/mL	–	–	0.748	–

Conditions	Bliss interaction score
[3]	0.0757
[4]	-0.0519
[5]	0.103
[6]	-0.0463

C[C@H]1COc2c(N3CCN(C)CC3)c(F)cc3c(=O)c(C(=O)O)cn1c23 [Levofloxacin] + CN(C)C(=O)C(CCN1CCC(O)(c2ccc(Cl)cc2)CC1)(c1ccccc1)c1ccccc1 [Loperamide]
Conditions	fitness
[1], first compound 0.1725 µg/mL, partner 20 µg/mL	≥ 1
[1], first compound 0.1725 µg/mL, partner 40 µg/mL	≥ 1
[1], first compound 0.2 µg/mL, partner 17.14 µg/mL	0.877
[1], first compound 0.2 µg/mL, partner 34.28 µg/mL	0.9
[1], first compound 0.345 µg/mL, partner 20 µg/mL	0.998
[1], first compound 0.345 µg/mL, partner 40 µg/mL	≥ 1
[1], first compound 0.4 µg/mL, partner 17.14 µg/mL	0.901
[1], first compound 0.4 µg/mL, partner 34.28 µg/mL	0.883
[1], first compound 0.69 µg/mL, partner 20 µg/mL	0.787
[1], first compound 0.69 µg/mL, partner 40 µg/mL	0.837
[1], first compound 0.8 µg/mL, partner 34.28 µg/mL	0.642
[2], first compound 0.0312 µg/mL, partner 25 µg/mL	0.0337
[2], first compound 0.0312 µg/mL, partner 50 µg/mL	0.0298
[2], first compound 0.0312 µg/mL, partner 100 µg/mL	0.0296
[2], first compound 0.0625 µg/mL, partner 25 µg/mL	0.0122
[2], first compound 0.0625 µg/mL, partner 50 µg/mL	0.0229
[2], first compound 0.0625 µg/mL, partner 100 µg/mL	0.0349
[2], first compound 0.125 µg/mL, partner 25 µg/mL	0.0335
[2], first compound 0.125 µg/mL, partner 50 µg/mL	0.0386
[2], first compound 0.125 µg/mL, partner 100 µg/mL	0.0401

fitness, one replicate
Conditions	first compound 0.001 µg/mL	first compound 0.002 µg/mL	first compound 0.0039 µg/mL	first compound 0.2 µg/mL	first compound 0.4 µg/mL	first compound 0.8 µg/mL
[1], partner 68.57 µg/mL	–	–	–	0.913	0.896	0.864
[2], partner 25 µg/mL	0.807	0.714	0.714	–	–	–
[2], partner 50 µg/mL	0.618	0.172	0.206	–	–	–
[2], partner 100 µg/mL	0.613	0.51	0.581	–	–	–

Conditions	Bliss interaction score
[3]	0.189
[4]	0.0444
[5]	0.155
[6]	0.0501

C[C@H]1COc2c(N3CCN(C)CC3)c(F)cc3c(=O)c(C(=O)O)cn1c23 [Levofloxacin] + CCN(CC)CCOC(=O)c1ccc(N)cc1 [Procaine]
fitness
Conditions	first compound 0.0312 µg/mL	first compound 0.0625 µg/mL	first compound 0.125 µg/mL	first compound 0.1725 µg/mL	first compound 0.345 µg/mL	first compound 0.69 µg/mL
[1], partner 85.5 µg/mL	–	–	–	0.937	0.878	0.602
[1], partner 171 µg/mL	–	–	–	0.946	0.87	0.62
[1], partner 342 µg/mL	–	–	–	0.918	0.877	0.625
[2], partner 85.5 µg/mL	0.0534	0.0358	0.0491	–	–	–
[2], partner 171 µg/mL	0.0369	0.0387	0.0458	–	–	–
[2], partner 342 µg/mL	0.0441	0.0408	0.0398	–	–	–

fitness, one replicate
Conditions	first compound 0.001 µg/mL	first compound 0.002 µg/mL	first compound 0.0039 µg/mL	first compound 0.2 µg/mL	first compound 0.4 µg/mL	first compound 0.8 µg/mL
[1], partner 85.5 µg/mL	–	–	–	0.924	0.815	0.372
[1], partner 171 µg/mL	–	–	–	≥ 1	0.853	0.49
[1], partner 342 µg/mL	–	–	–	0.923	0.86	0.501
[2], partner 85.5 µg/mL	0.882	0.83	0.861	–	–	–
[2], partner 171 µg/mL	0.923	0.824	0.869	–	–	–
[2], partner 342 µg/mL	0.912	0.849	0.872	–	–	–

Conditions	Bliss interaction score
[3]	0.053
[4]	-0.108
[5]	-0.0156
[6]	0.108
